What was measured:
[1] = Stability of ambrisentan liquid compositions; type: physicochemical; details: use of an autoclave
Excerpt: The liquid compositions of the invention can be prepared using conventional techniques. Typically, the invention pertains to a process for preparing a liquid composition comprising the steps of (a) contacting the endothelin receptor antagonist, preferably ambrisentan, the buffer and the solvent and optionally the excipient and (b) stirring the solution to allow dissolution of the various ingredients, in particular the endothelin receptor antagonist or ambrisentan; and (c) subsequently sterilizing the resulting solution. Step (a) of the process of the invention may comprise of contacting all ingredients at once or it may comprise contacting the ingredients in sequential order, whereby the one or more steps can proceed at the same temperature or at different temperatures. For example, the ingredients that easily dissolve in the solvent at room temperature can be contacted at room temperature first, and subsequently the temperature can be raised, e.g. to 50° C., after which the lowly soluble compounds are added, e.g. the endothelin receptor antagonist such as ambrisentan. Step (b) may proceed until no solid particles can be discerned visually or through analytical techniques. The sterilization of step (c) of the process can be conducted using any sterilization technique known in the art such as filtration and autoclave sterilization. […]

healthy human subjects = assay: 24-hour intravenous ambrisentan infusion in healthy human subjects: urine output, water balance, free water clearance; type: in vivo
Procedure: A study was performed to determine whether lower concentrations of ambrisentan in blood are less likely to produce renal side effects as those seen with current concentrations achieved with the current commercial presentation of ambrisentan. In this study a liquid composition of ambrisentan at a concentration of 5 mg/mL was administered to 20 healthy human subjects at varying rates of administration in order to achieve different ambrisentan concentrations in blood and over a period of 24 hours. Target concentrations in the low dose group were 20 and 40 ng/mL (Group A) after 4 hours and 16 hours respectively, and 80 and 160 ng/mL in the high dose group (Group B) after 4 hours and 16 hours respectively. […] Steady state for each target concentration was maintained for at least 8 hours prior to increasing the concentration. Ten subjects were assigned to Group A and ten subjects to Group B. Pharmacokinetic and plasma ET-1 samples were collected and analysed at different timepoints for up to 72 hours. Urine was collected for 24 hours and in intervals from 0-2 hours, 2-4 hours, 4-8 hours, 8-12, hours, 12-18 hours and 18-24 hours.
All subjects received a 100 ml/hr infusion of 0.45% physiological solution for 24 hours and ambrisentan was administered in a 250-mL solution of 0.9% of physiological solution over a period of 24 hours. Subjects had free access to water and a normal diet. At a minimum, subjects received through intravenous infusion a total of 2650 mL of water and 223.3 mmol of sodium in the 24-hour period of drug administration.
The effect on urine was consistent throughout the different collection periods of the 24-hour infusion period. Patients in Group A maintained higher urinary output rates throughout the study as compared to Group B. In the Tables Below, Water Balance is the result of subtracting urine volume from intravenous liquid input.
The increase in urine formation (diuresis) was further characterised by determining the effect of ambrisentan on urine composition, specifically urine osmolality.

[2] = human studies, ambrisentan 5 and 10 mg/day; cited from earlier work

COC(c1ccccc1)(c1ccccc1)[C@H](Oc1nc(C)cc(C)n1)C(=O)O [ambrisentan]
stability on autoclave sterilization [1]: can decompose
Hourly Water Balance, Mean (healthy human subjects; Group A (low dose, target 20 and 40 ng/mL), collection period 0 H to 2 H): -74.58 mL/h
Hourly Water Balance, Mean (healthy human subjects; Group A (low dose, target 20 and 40 ng/mL), collection period 2 H to 4 H): -76.08 mL/h
Hourly Water Balance, Mean (healthy human subjects; Group A (low dose, target 20 and 40 ng/mL), collection period 4 H to 8 H): -1.08 mL/h
Hourly Water Balance, Mean (healthy human subjects; Group A (low dose, target 20 and 40 ng/mL), collection period 8 H to 12 H): -12.58 mL/h
Hourly Water Balance, Mean (healthy human subjects; Group A (low dose, target 20 and 40 ng/mL), collection period 12 H to 18 H): -13.75 mL/h
Hourly Water Balance, Mean (healthy human subjects; Group A (low dose, target 20 and 40 ng/mL), collection period 18 H to 24 H): -32.92 mL/h
Cumulative Water Balance, Mean (healthy human subjects; Group A (low dose, target 20 and 40 ng/mL), end of collection 2 H): -149.17 mL
Cumulative Water Balance, Mean (healthy human subjects; Group A (low dose, target 20 and 40 ng/mL), end of collection 4 H): -301.33 mL
Cumulative Water Balance, Mean (healthy human subjects; Group A (low dose, target 20 and 40 ng/mL), end of collection 8 H): -305.67 mL
Cumulative Water Balance, Mean (healthy human subjects; Group A (low dose, target 20 and 40 ng/mL), end of collection 12 H): -356.00 mL
Cumulative Water Balance, Mean (healthy human subjects; Group A (low dose, target 20 and 40 ng/mL), end of collection 18 H): -438.50 mL
Cumulative Water Balance, Mean (healthy human subjects; Group A (low dose, target 20 and 40 ng/mL), end of collection 24 H): -636.00 mL
Hourly Water Balance, Mean (healthy human subjects; Group B (high dose, target 80 and 160 ng/mL), collection period 0 H to 2 H): -6.33 mL/h
Hourly Water Balance, Mean (healthy human subjects; Group B (high dose, target 80 and 160 ng/mL), collection period 2 H to 4 H): 11.17 mL/h
Hourly Water Balance, Mean (healthy human subjects; Group B (high dose, target 80 and 160 ng/mL), collection period 4 H to 8 H): 27.17 mL/h
Hourly Water Balance, Mean (healthy human subjects; Group B (high dose, target 80 and 160 ng/mL), collection period 8 H to 12 H): 7.17 mL/h
Hourly Water Balance, Mean (healthy human subjects; Group B (high dose, target 80 and 160 ng/mL), collection period 12 H to 18 H): -10.08 mL/h
Hourly Water Balance, Mean (healthy human subjects; Group B (high dose, target 80 and 160 ng/mL), collection period 18 H to 24 H): 34.75 mL/h
Cumulative Water Balance, Mean (healthy human subjects; Group B (high dose, target 80 and 160 ng/mL), end of collection 2 H): -12.67 mL
Cumulative Water Balance, Mean (healthy human subjects; Group B (high dose, target 80 and 160 ng/mL), end of collection 4 H): 9.67 mL
Cumulative Water Balance, Mean (healthy human subjects; Group B (high dose, target 80 and 160 ng/mL), end of collection 8 H): 118.33 mL
Cumulative Water Balance, Mean (healthy human subjects; Group B (high dose, target 80 and 160 ng/mL), end of collection 12 H): 147.00 mL
Cumulative Water Balance, Mean (healthy human subjects; Group B (high dose, target 80 and 160 ng/mL), end of collection 18 H): 86.50 mL
Cumulative Water Balance, Mean (healthy human subjects; Group B (high dose, target 80 and 160 ng/mL), end of collection 24 H): 295.00 mL
fluid accumulation (healthy human subjects; ambrisentan concentrations above 100 ng/mL): significant accumulation of fluid through the inability to increase urinary output
renal effect, fluid retention (healthy human subjects; total ambrisentan lower than 100 ng/mL): have less of an effect on fluid retention
renal effect, fluid retention (healthy human subjects; total ambrisentan of about 100 ng/mL and higher): show an adverse renal effect by promoting fluid retention
plasma levels [2]: exceeding 350 ng/ml

Reference: US11642307B2, “Ambrisentan for use in the treatment of acute renal failure” (Noorik Biopharmaceuticals AG, priority 2016, dated 2023)
